Laboratory results published in US20160022681A1, “METHODS OF INCREASING LYMPHATIC TRANSPORT” (UNIVERSITY OF ROCHESTER, priority 2012, published 2016).
“Also recorded” adds a separate entry of the source. Bridge positions count the residues as written; N and C are the ends. Ends that are not written are not given here.

Test system: lymphatic vessels
Assay: near-infrared (NIR) imaging of indocyanine green (ICG) transport after footpad injection
Type: in vivo
Details: mouse, sildenafil 12 mg/kg intraperitoneally, images taken 20 minutes after treatment, versus saline control
Experimental: To determine if phosphodiesterase (PDE) inhibitors were capable of increasing lymphatic transport, near-infrared (NIR) imaging of indocyanine green ICG) transport was used. ICG (20 μl of 0.1 mg ICG/ml water) was injected into the footpad Of the animal Where it is taken up by the lymphatic system. The extremity was illuminated with near infrared light (generated with a tungsten halogen source) resulting in near infrared fluorescence at a longer wavelength that was recorded with a near-infrared sensitive camera (Prosilica GC1380; Allied Vision Technologies; Stadtroda, Germany). Excitation and emission wavelengths were separated using Semrock filters (IDEX; Lake Forest, Ill.) from the ICG-A filter set. To determine if PDE inhibitors Were capable of increasing lymphatic transport, sildenafil (12 mg/kg), a PDE5 antagonist, was injected intraperitoneally with ICG into the footpad of a mouse. Saline was used a control.

Compound	ICG uptake into lymphatic vessels / lymphatic system
CCCc1nn(C)c2c(=O)[nH]c(-c3cc(S(=O)(=O)N4CCN(C)CC4)ccc3OCC)nc12 [sildenafil]	increases indocyanine green (ICG) uptake into lymphatic vessels; also recorded: increased ICG uptake into the lymphatic system

Test system: lymphatic vessels
Assay: not given
Details: ex vivo studies; cited from earlier work

Compound	lymphatic pulsing and/or flow
CCCCC[C@H](O)/C=C/[C@@H]1[C@@H](C/C=C\CCCC(=O)O)[C@H]2CO[C@@H]1C2 [U46619]	increase lymphatic pulsing and/or flow
O=S(=O)(O)c1cc(O)ccc1O [doxium]	increase lymphatic pulsing and/or flow
NC[C@H](O)c1ccc(O)c(O)c1 [norepinephrine]	increase lymphatic pulsing and/or flow
endothelin-1 (CSCSSLMDKECVYFCHLDIIW; disulfide 1-15, 3-11; ends not checked; UniProt P05305 53-73, looked up)	increase lymphatic pulsing and/or flow
hyaluronidase	increase lymphatic pulsing and/or flow
substance P (RPKPQQFFGLM-NH2; ends and bridges not checked; UniProt P20366 58-68, looked up)	increase lymphatic pulsing and/or flow
